Experimental findings from patent US12116388B2, “Amylin receptor agonists” (Novo Nordisk A/S, priority 2022, dated 2024) are described below.

Data set [1] in a line: Oral pharmacokinetic profiles in Beagle dogs (SNAC tablets). The format is in vivo. The note with it: oral tablet: 3 mg compound, 300 mg SNAC, 7.7 mg magnesium stearate; for half-life: male, dog, plasma, read-out: T½ (converted). The procedure: To be able to evaluate oral exposure following tablet dosing, tablet compositions comprising the test substance and SNAC (sodium N-(8-(2-hydroxybenzoyl)amino)caprylate) were prepared by mixing test substance with roller compacted SNAC and magnesium stearate as, e.g., described in WO 2019/149880.
This assay was performed to measure the oral bioavailability of a compound. The assay determined the exposure of test compound following oral administration in Beagle dogs as described by relevant pharmacokinetic parameters and plasma concentration curves.
Preparation of tablets for oral administration: tablets containing test compound used for the assay described herein were immediate release SNAC-based tablets. The test compound was spray-dried as neutral sodium salt (pH 7-8). Dry granulation was carried out by roller compaction on a Gerteis MINI-PACTOR. Tablets containing 3 mg test compound, 300 mg sodium N-(8-(2-hydroxybenzoyl)amino)caprylate (SNAC) and 7.7 mg magnesium stearate were produced on at Kilian Style One using 7.2×12 mm punches.
Determination of the absorption following oral administration: eight (8) male Beagle dogs, 1 to 8 years of age and weighing approximately 10-15 kg at the start of the studies, were used. The dogs were group-housed in pens (12 hours light:12 hours dark), and fed individually and restrictedly once daily with Royal Canin Medium Adult dog (Royal Canin Products, China Branch, or Brogaarden A/S, Denmark). Exercise and group social were permitted daily, whenever possible. The dogs were used for repeated pharmacokinetic studies with a suitable wash-out period between successive dosing. An appropriate acclimatisation period was given prior to initiation of the first pharmacokinetic study. All handling, dosing and blood sampling of the animals were performed by trained and skilled staff. Before the studies the dogs were fasted overnight and from 0 to 4 h after dosing. Besides, the dogs were restricted to water 1 hour before dosing until 4 hours after dosing, but otherwise had ad libitum access to water during the whole period.
Tablets containing the test compound were administered in the following manner: 10 min prior to tablet administration the dogs were dosed subcutaneously with approximately 3.2 nmol/kg of glucagon. The tablets were placed in the back of the mouth of the dog to prevent chewing. The mouth was then closed, and 10 mL of tap water was given by a syringe to facilitate swallowing of the tablet. Blood was sampled at predefined time points for up till 288 hours after dosing to adequately cover the full plasma concentration-time absorption profile of the compound. For each blood sampling time point approximately 1.2 mL of whole blood was collected in a 1.5 mL EDTA coated tube, and the tube was gently turned to allowing mixing of the sample with the EDTA. Then, the blood samples were kept on ice until centrifugation (4 min, 4° C., 4000 rpm). Plasma was pipetted into Micronic tubes on dry ice and kept at −20° C. until analysis. Blood samples were taken as appropriate, for example from a venflon in the cephalic vein in the front leg for the first 2 hours and then with syringe from the jugular vein for the rest of the time points (the first few drops were allowed to drain from the venflon to avoid heparin saline from the venflon in the sample).
Bioanalysis was carried out as follows: plasma concentrations of test compound were assayed by plasma protein precipitation and analysed by liquid chromatography-mass spectrometry (LC-MS). Calibrators were prepared by spiking blank dog plasma with analytes to reach the final concentrations in the range typically from 0.5 to 200 nM. Calibrators, plasma blanks or study samples were prepared for LC-MS by protein precipitation by adding 3 volumes of ethanol followed by centrifugation at 4000 rpm at 4° C. for 1 h. The supernatant was diluted with 2 volumes of Milli-Q water containing 0.1% formic acid before injection on the LC-MS system. […]

Data set [2] concerns the target T1, human amylin receptor (hAMYR3) (Homo sapiens, UniProt O60896+P30988).
T1 construct: host or cells: BHK (Baby Hamster Kidney), Hollex-1 cell line further transfected with RAMP3
The experiment in a line: Human amylin receptor (hAMYR3) in vitro potency assay, CRE-luciferase reporter in BHK cells. Format: cell-based. The note with it: BHK hAMYR3/CRE-Luc cells, 3 hours incubation, assay buffer with 1% ovalbumin. A digest of the protocol:
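Luminescence from a CRE-driven luciferase reporter reflects cAMP-mediated receptor activation. Peptides were serially diluted (7 concentrations, 7-fold steps, typically starting near 10 nM) in buffer with 1% ovalbumin and applied for 3 h at 37 °C to BHK cells co-expressing calcitonin receptor (a) and RAMP3.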

Starred links: 1 amine or outer side, 2 acyl side, 3 side chain; linkers in the order of their positions; H or OH if unused. Residues, ends and D or L forms follow the SMILES beside them. Groups on a side chain read outwards from the residue. *: point of attachment. C20 diacid = O=C(O)CCCCCCCCCCCCCCCCCCC(=O)*; C18 diacid = O=C(O)CCCCCCCCCCCCCCCCC(=O)*; γGlu = O=C(O)[C@H](CCC(=O)[*:2])N[*:1]

T1 sequence (P30988 25-474): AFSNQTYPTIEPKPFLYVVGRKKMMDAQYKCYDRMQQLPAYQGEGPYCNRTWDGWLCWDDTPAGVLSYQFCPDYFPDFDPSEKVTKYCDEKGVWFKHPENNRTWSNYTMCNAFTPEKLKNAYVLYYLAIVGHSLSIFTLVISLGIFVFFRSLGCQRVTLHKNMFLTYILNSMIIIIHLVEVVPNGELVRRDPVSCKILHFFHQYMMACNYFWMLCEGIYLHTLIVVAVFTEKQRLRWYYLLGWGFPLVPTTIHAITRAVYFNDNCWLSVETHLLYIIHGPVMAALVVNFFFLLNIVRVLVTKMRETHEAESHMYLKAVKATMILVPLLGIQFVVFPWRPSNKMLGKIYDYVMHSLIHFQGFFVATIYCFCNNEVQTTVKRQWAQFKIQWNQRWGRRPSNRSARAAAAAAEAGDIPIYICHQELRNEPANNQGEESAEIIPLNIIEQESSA
T1 sequence (O60896 24-148): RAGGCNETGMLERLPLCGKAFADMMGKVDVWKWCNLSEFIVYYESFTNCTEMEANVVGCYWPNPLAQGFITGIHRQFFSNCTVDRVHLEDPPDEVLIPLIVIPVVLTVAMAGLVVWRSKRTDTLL

Regarding `CC[C@H](C)[C@H](NC(=O)[C@@H]1CCCN1C(=O)CNC(=O)[C@H](Cc1ccccc1)NC(=O)[C@H](Cc1c[nH]cn1)NC(=O)[C@H](Cc1c[nH]cn1)NC(=O)[C@H](CC(C)C)NC(=O)[C@H](Cc1ccccc1)NC(=O)[C@H](CCC(=O)O)NC(=O)[C@H](C)NC(=O)[C@H](CC(C)C)NC(=O)[C@H](CCCNC(=N)N)NC(=O)[C@H](CCC(N)=O)NC(=O)[C@@H](NC(=O)[C@H](CCC(N)=O)NC(=O)[C@H](C)NC(=O)[C@@H](NC(=O)[C@H](CO)NC(=O)[C@H](CC(C)C)NC(=O)[C@H](Cc1c[nH]cn1)NC(=O)[C@H](CO)NC(=O)[C@H](C)NC(=O)CC[C@H](NC(=O)CCCCCCCCCCCCCCCCCCC(=O)O)C(=O)O)[C@@H](C)O)[C@@H](C)O)C(=O)N[C@@H](CC(C)C)C(=O)N1CCC[C@H]1C(=O)N1CCC[C@H]1C(=O)N[C@H](C(=O)N[C@@H](CC(=O)O)C(=O)N[C@H](C(=O)NCC(=O)N[C@@H](CO)C(=O)N[C@@H](CCC(=O)O)C(=O)N[C@H](C(=O)N1CCC[C@H]1C(N)=O)[C@@H](C)O)C(C)C)[C@@H](C)O` [Compound 4, N^1-[(4S)-4-carboxy-4-(19-carboxynonadecanoylamino)butanoyl]-[Ala1,Ser2,His3,Leu4,Ser5,Ala7,Gln8,Glu14,His17,Pro25,Pro28,Pro29,Asp31,Glu35,Pro37],des-(19-22)-human amylin] ({C20 diacid-γGlu}-ASHLSTAQTQRLAEFLHHFGPILPPTDVGSETP-NH2), in data set [1], the half-life is 130 h, the “AUC/D” value was 21.24 kg·h/L and the “Cmax/D” value was 0.23 kg/L. Further, the concentration for a half-maximal effect (EC50) in data set [2] came out at 1.12 pM.
Turning to `CC[C@H](C)[C@H](NC(=O)[C@H](C)NC(=O)CNC(=O)[C@H](Cc1ccccc1)NC(=O)[C@@H]1CCCN1C(=O)[C@H](CC(=O)O)NC(=O)[C@H](CO)NC(=O)[C@H](CO)NC(=O)[C@H](Cc1c[nH]cn1)NC(=O)[C@H](Cc1c[nH]cn1)NC(=O)[C@H](CC(C)C)NC(=O)[C@H](Cc1ccccc1)NC(=O)[C@H](CCC(=O)O)NC(=O)[C@H](C)NC(=O)[C@H](CC(C)C)NC(=O)[C@H](CCCNC(=N)N)NC(=O)[C@H](CCC(N)=O)NC(=O)[C@@H](NC(=O)[C@H](CCC(N)=O)NC(=O)[C@H](C)NC(=O)[C@@H](NC(=O)[C@H](CO)NC(=O)[C@H](CC(C)C)NC(=O)[C@H](Cc1c[nH]cn1)NC(=O)[C@H](CO)NC(=O)[C@H](C)NC(=O)CC[C@H](NC(=O)CCCCCCCCCCCCCCCCC(=O)O)C(=O)O)[C@@H](C)O)[C@@H](C)O)C(=O)N1CCC[C@H]1C(=O)N[C@@H](CO)C(=O)N[C@@H](CO)C(=O)N[C@H](C(=O)N[C@@H](CC(=O)O)C(=O)N[C@H](C(=O)NCC(=O)N1CCC[C@H]1C(=O)N[C@@H](CC(=O)O)C(=O)N[C@H](C(=O)N1CCC[C@H]1C(N)=O)[C@@H](C)O)C(C)C)[C@@H](C)O` [Compound 8, N^1-[(4S)-4-carboxy-4-(17-carboxyheptadecanoylamino)butanoyl]-[Ala1,Ser2,His3,Leu4,Ser5,Ala7,Gln8,Glu14,His17,Asp21,Pro22,Pro27,Asp31,Pro34,Asp35,Pro37]-human amylin] ({C18 diacid-γGlu}-ASHLSTAQTQRLAEFLHHSSDPFGAIPSSTDVGPDTP-NH2), in data set [1], the half-life was 121 h, the “AUC/D” value is 17.52 kg·h/L and the “Cmax/D” value was 0.24 kg/L. Also, the EC50 in data set [2] is 1.5 pM.
For `CC[C@H](C)[C@H](NC(=O)[C@H](C)NC(=O)CNC(=O)[C@H](Cc1ccccc1)NC(=O)[C@@H]1CCCN1C(=O)[C@H](CC(=O)O)NC(=O)[C@H](CO)NC(=O)[C@H](CO)NC(=O)[C@H](Cc1c[nH]cn1)NC(=O)[C@H](Cc1c[nH]cn1)NC(=O)[C@H](CC(C)C)NC(=O)[C@H](Cc1ccccc1)NC(=O)[C@H](CCC(=O)O)NC(=O)[C@H](C)NC(=O)[C@H](CC(C)C)NC(=O)[C@H](CCCNC(=N)N)NC(=O)[C@H](CCC(N)=O)NC(=O)[C@@H](NC(=O)[C@H](CCC(N)=O)NC(=O)[C@H](C)NC(=O)[C@@H](NC(=O)[C@H](CO)NC(=O)[C@H](CC(C)C)NC(=O)[C@H](CO)NC(=O)CNC(=O)[C@H](C)NC(=O)CC[C@H](NC(=O)CCCCCCCCCCCCCCCCC(=O)O)C(=O)O)[C@@H](C)O)[C@@H](C)O)C(=O)N1CCC[C@H]1C(=O)N[C@@H](CO)C(=O)N[C@@H](CO)C(=O)N[C@H](C(=O)N[C@@H](CC(=O)O)C(=O)N[C@H](C(=O)NCC(=O)N1CCC[C@H]1C(=O)N[C@@H](CC(=O)O)C(=O)N[C@H](C(=O)N1CCC[C@H]1C(N)=O)[C@@H](C)O)C(C)C)[C@@H](C)O` [Compound 10, N^1-[(4S)-4-carboxy-4-(17-carboxyheptadecanoylamino)butanoyl]-[Ala1,Gly2,Ser3,Leu4,Ser5,Ala7,Gln8,Glu14,His17,Asp21,Pro22,Pro27,Asp31,Pro34,Asp35,Pro37]-human amylin] ({C18 diacid-γGlu}-AGSLSTAQTQRLAEFLHHSSDPFGAIPSSTDVGPDTP-NH2), in that order: 131 h, 27.73 kg·h/L, 0.34 kg/L and 1.44 pM.
Regarding `CC[C@H](C)[C@H](NC(=O)[C@H](CCCCNC(=O)CC[C@H](NC(=O)CCCCCCCCCCCCCCCCC(=O)O)C(=O)O)NC(=O)CNC(=O)[C@H](Cc1ccccc1)NC(=O)[C@H](CC(N)=O)NC(=O)[C@H](CC(=O)O)NC(=O)[C@H](CO)NC(=O)[C@H](CO)NC(=O)[C@H](Cc1c[nH]cn1)NC(=O)[C@H](Cc1c[nH]cn1)NC(=O)[C@H](CC(C)C)NC(=O)[C@H](Cc1ccccc1)NC(=O)[C@H](CCC(=O)O)NC(=O)[C@H](C)NC(=O)[C@H](CC(C)C)NC(=O)[C@H](CCCNC(=N)N)NC(=O)[C@H](C)NC(=O)[C@@H](NC(=O)[C@H](CCC(N)=O)NC(=O)[C@H](C)NC(=O)[C@@H](NC(=O)[C@H](CO)NC(=O)[C@H](CC(C)C)NC(=O)[C@H](Cc1c[nH]cn1)NC(=O)[C@H](CO)NC(=O)[C@H](C)NC(C)=O)[C@@H](C)O)[C@@H](C)O)C(=O)N[C@@H](CC(C)C)C(=O)N1CCC[C@H]1C(=O)N1CCC[C@H]1C(=O)N[C@H](C(=O)N[C@@H](CC(=O)O)C(=O)N[C@H](C(=O)NCC(=O)N[C@@H](CO)C(=O)N[C@@H](CC(N)=O)C(=O)N[C@H](C(=O)N1CCC[C@H]1C(N)=O)[C@@H](C)O)C(C)C)[C@@H](C)O` [Compound 41, N^1-acetyl,N{Epsilon-25}-[(4S)-4-carboxy-4-(17-carboxyheptadecanoylamino)butanoyl]-[Ala1,Ser2,His3,Leu4,Ser5,Ala7,Gln8,Ala10,Glu14,His17,Asp21,Lys25,Pro28,Pro29,Asp31,Pro37]-human amylin] (Ac-ASHLSTAQTARLAEFLHHSSDNFGK([γGlu-C18 diacid])ILPPTDVGSNTP-NH2), the concentration giving a half-maximal response (EC50) in data set [2] was determined as 1.16 pM.
